In brackets after ≈: the same amount, converted by molar mass. Read-outs that look alike come from different tables or passages of the source.

Holding throughout (format): cell-based
One assay concerns Shigella sonnei R 018. Nature of the assay: In vitro antibacterial activity, MIC, Shigella sonnei R 018. As to conditions: R018, 37° C., pH=7.4, inoculum 10^4. As for the experimental part:
(§1) Tests carried out in vitro in accordance with the experimental procedure described hereunder have provided evidence of the antibacterial activity in question.
(§2) For this purpose, the M.I.C. were determined i.e. the minimal inhibiting concentrations of the compound under study acting on the growth of the bacteria at 37° C.
(§3) The serial dilutions method was used utilizing a MUELLER HINTON gelose medium at pH=7.4 and a bacterial inoculum of 10^4 units forming colonies. This inoculum was applied to the gelose by means of a multiple sowing device.
(§4) A scale of concentrations ranging from 100 to 0.05 μg/ml of compound to be studied was used starting from mother solutions titrating 1000 μg/ml, all the subsequent dilutions being effected in distilled water.

In assay [1] the test system is Acinetobacter calcoaceticus C 1733. In words: In vitro antibacterial activity, MIC, Acinetobacter calcoaceticus C 1733. As to conditions: C1733, 37° C., pH=7.4, inoculum 10^4, read-out: MIC. As for the experimental part: as §1, §2, §3, §4
The subject of a further assay is Proteus morganii 1510. Nature of the assay: In vitro antibacterial activity, MIC, Proteus morganii 1510. As to conditions: Morganella morganii. As for the experimental part:
as §1, §2, §3, §4

In assay [2] the test system is Staphylococcus aureus 53154 IP. Nature of the assay: In vitro antibacterial activity, MIC, Staphylococcus aureus 53154 IP. As to conditions: Staphylococcus aureus 53154 IP; 37° C., pH=7.4, inoculum 10^4; read-out: MIC. Here is the method:
as §1, §2, §3, §4

The test system of assay [3] is Streptococcus faecalis 5855 IP. In words: In vitro antibacterial activity, MIC, Streptococcus faecalis 5855 IP. As to conditions: Enterococcus faecalis, 37° C., pH=7.4, inoculum 10^4, read-out: MIC. Here is the method:
as §1, §2, §3, §4

Assay [4] relates to Pseudomonas aeruginosa 8203. In words: In vitro antibacterial activity, MIC, Pseudomonas aeruginosa 8203. As to conditions: 37° C., pH=7.4, inoculum 10^4, read-out: MIC. Here is the method: as §1, §2, §3, §4
The test system of assay [5] is Salmonella typhi ATCC 6539. In words: In vitro antibacterial activity, MIC, Salmonella typhi ATCC 6539. As to conditions: Salmonella enterica. As for the experimental part:
as §1, §2, §3, §4

Assay [6] has as its system Escherichia coli 54127 IP. Nature of the assay: In vitro antibacterial activity, MIC, Escherichia coli 54127 IP. As for the experimental part: as §1, §2, §3, §4
The test system of assay [7] is Klebsiella pneumoniae ATCC 10031. In words: In vitro antibacterial activity, MIC, Klebsiella pneumoniae ATCC 10031. As to conditions: ATCC10031; Klebsiella pneumoniae ATCC 10031; 37° C., pH=7.4, inoculum 10^4; read-out: MIC. Here is the method:
as §1, §2, §3, §4

For assay [8], the system named is Escherichia coli SOL RL 90. Nature of the assay: In vitro antibacterial activity, MIC, Escherichia coli SOL RL 90. As to conditions: SOLRL90; Escherichia coli SOL RL 90; 37° C., pH=7.4, inoculum 10^4; read-out: MIC. As for the experimental part:
as §1, §2, §3, §4

The subject of assay [9] is Enterobacter hafniae RO 46. In words: In vitro antibacterial activity, MIC, Enterobacter hafniae RO 46. As to conditions: Hafnia alvei, RO46. Here is the method: as §1, §2, §3, §4
The subject of assay [10] is Citrobacter freundii GN 346. Nature of the assay: In vitro antibacterial activity, MIC, Citrobacter freundii GN 346. As to conditions: GN346; Citrobacter freundii GN 346; 37° C., pH=7.4, inoculum 10^4; read-out: MIC. As for the experimental part: as §1, §2, §3, §4
For assay [11], the system named is Salmonella typhimurium A 222 IP. In words: In vitro antibacterial activity, MIC, Salmonella typhimurium A 222 IP. As to conditions: Salmonella enterica; Salmonella typhimurium A 222 IP; 37° C., pH=7.4, inoculum 10^4; read-out: MIC. Here is the method: as §1, §2, §3, §4
Assay [12] relates to Enterobacter cloacae P 99. In words: In vitro antibacterial activity, MIC, Enterobacter cloacae P 99. As to conditions: Enterobacter cloacae, P99. As for the experimental part: as §1, §2, §3, §4
Assay [13] deals with Serratia liquefaciens 376. Nature of the assay: In vitro antibacterial activity, MIC, Serratia liquefaciens 376. As to conditions: 37° C., pH=7.4, inoculum 10^4, read-out: MIC. Here is the method: as §1, §2, §3, §4
For assay [14], the system named is Bordetella bronchiseptica ATCC 4617. In words: In vitro antibacterial activity, MIC, Bordetella bronchiseptica ATCC 4617. As to conditions: ATCC4617, 37° C., pH=7.4, inoculum 10^4, read-out: MIC. Here is the method: as §1, §2, §3, §4
The test system of assay [15] is Providencia stuartii 5158. Nature of the assay: In vitro antibacterial activity, MIC, Providencia stuartii 5158. As to conditions: Providencia stuartii 5158; 37° C., pH=7.4, inoculum 10^4; read-out: MIC. Here is the method: as §1, §2, §3, §4
The test system of assay [16] is Proteus vulgaris RL 99 bis. Nature of the assay: In vitro antibacterial activity, MIC, Proteus vulgaris RL 99 bis. As to conditions: RL99BIS. Here is the method:
as §1, §2, §3, §4

Assay [17] has as its system Klebsiella pneumoniae R 30. Nature of the assay: In vitro antibacterial activity, MIC, Klebsiella pneumoniae R 30. As to conditions: R30; Klebsiella pneumoniae R 30; 37° C., pH=7.4, inoculum 10^4; read-out: MIC. As for the experimental part: as §1, §2, §3, §4
Assay [18] has as its system Proteus mirabilis ATCC 21100. In words: In vitro antibacterial activity, MIC, Proteus mirabilis ATCC 21100. As to conditions: ATCC21100; Proteus mirabilis ATCC 21100; 37° C., pH=7.4, inoculum 10^4; read-out: MIC. Here is the method: as §1, §2, §3, §4

As to `CCn1cc(C(=O)O)c(=O)c2cc(C=Nc3ccccc3)sc21` [Compound J, 4,7-Dihydro-7-ethyl-2-N-phenyl-iminomethyl-4-oxo-thieno[2,3-b]pyridine-5-carboxylic acid], the MIC (as a rule, the lowest concentration that inhibits growth of the organism) is 3.12 µg/mL (≈ 9.56 µM) against Shigella sonnei R 018; > 100 µg/mL in [1]; 3.12 µg/mL (≈ 9.56 µM) with Proteus morganii 1510 (1510); > 100 µg/mL in assay [2]; > 100 µg/mL in assay [3]; > 100 µg/mL in assay [4]. In addition, the MIC in [5] stood at 25 µg/mL (≈ 76.6 µM); in assay [6] (Escherichia coli, 54127IP) it was 3.12 µg/mL (≈ 9.56 µM); in assay [7] it was 50 µg/mL (≈ 153 µM); in [8], 6.25 µg/mL (≈ 19.1 µM); in assay [9], 3.12 µg/mL (≈ 9.56 µM); in assay [10] it was 12.5 µg/mL (≈ 38.3 µM). For the same compound, the MIC was 6.25 µg/mL (≈ 19.1 µM) in assay [11]; 50 µg/mL (≈ 153 µM) in assay [12]; > 100 µg/mL in assay [13]; > 100 µg/mL in assay [14]; 12.5 µg/mL (≈ 38.3 µM) in assay [15]; 3.12 µg/mL (≈ 9.56 µM) in assay [16] (Proteus vulgaris). In addition, the MIC in assay [17] came out at 25 µg/mL (≈ 76.6 µM); in [18], 12.5 µg/mL (≈ 38.3 µM).
Take `CCn1cc(C(=O)O)c(=O)c2cc(C(=O)O)sc21` [Compound X, 4,7-dihydro-7-ethyl-2-carboxy-4-oxo-thieno[2,3-b]pyridine-5-carboxylic acid, reference compound]: the minimum inhibitory concentration (MIC) was > 100 µg/mL against Shigella sonnei R 018; > 100 µg/mL in [1]; > 100 µg/mL in the assay with Proteus morganii 1510 (Proteus morganii 1510, 37° C., pH=7.4, inoculum 10^4, read-out: MIC); > 100 µg/mL in assay [2]; > 100 µg/mL in assay [3]; > 100 µg/mL in [4]. Further, the MIC in [5] is > 100 µg/mL; in [6] (Escherichia coli 54127 IP, 37° C., pH=7.4, inoculum 10^4, read-out: MIC) it was > 100 µg/mL; in assay [7] it was > 100 µg/mL; in [8] it was > 100 µg/mL; in assay [9] (Enterobacter hafniae RO 46, 37° C., pH=7.4, inoculum 10^4, read-out: MIC) it was > 100 µg/mL; in assay [10], > 100 µg/mL. Further, the MIC in assay [11] is > 100 µg/mL; in assay [12] it was > 100 µg/mL; in assay [13], > 100 µg/mL; in assay [14], > 100 µg/mL; in assay [15], > 100 µg/mL; in [16] (Proteus vulgaris RL 99 bis, 37° C., pH=7.4, inoculum 10^4, read-out: MIC), > 100 µg/mL. Moreover, the MIC in [17] and in assay [18] was > 100 µg/mL throughout.
Turning to `CCn1cc(C(=O)O)c(=O)c2cc([N+](=O)[O-])sc21` [Compound Y, 4,7-dihydro-7-ethyl-2-nitro-4-oxo-thieno[2,3-b]pyridine-5-carboxylic acid, reference compound], the minimal inhibitory concentration (MIC) against Shigella sonnei R 018 was 3.12 µg/mL (≈ 11.6 µM); in assay [1], > 100 µg/mL; against Proteus morganii 1510 (1510), 3.12 µg/mL (≈ 11.6 µM); in assay [2], > 100 µg/mL; in assay [3], > 100 µg/mL; in assay [4] it was > 100 µg/mL. For the same compound, the minimal inhibitory concentration (MIC) in [5] worked out at 25 µg/mL (≈ 93.2 µM); in [6] (Escherichia coli, 54127IP), 3.12 µg/mL (≈ 11.6 µM); in [7], 50 µg/mL (≈ 186 µM); in assay [8], 6.25 µg/mL (≈ 23.3 µM); in assay [9] it was 3.12 µg/mL (≈ 11.6 µM); in assay [10], 12.5 µg/mL (≈ 46.6 µM). Further, the MIC in assay [11] is 6.25 µg/mL (≈ 23.3 µM); in [12], 50 µg/mL (≈ 186 µM); in [13], > 100 µg/mL; in [14], > 100 µg/mL; in assay [15], 12.5 µg/mL (≈ 46.6 µM); in assay [16] (Proteus vulgaris), 3.12 µg/mL (≈ 11.6 µM). The values for the minimum inhibitory concentration (MIC) in assay [17] and in [18] were 25 µg/mL (≈ 93.2 µM) and 12.5 µg/mL (≈ 46.6 µM), respectively.

The values are drawn from patent US4663329A, “Thienopyridinone derivatives and anti-bacterial compositions containing them” (Sanofi, priority 1984, dated 1987).
